Results reported in patent US10350271B2, “Lipidated peptides for lowering blood glucose” (USTAV ORGANICKE CHEMIE A BIOCHEMIE AKADEMIE VED CR, V.V.I., priority 2014, dated 2019).
Square brackets hold non-standard residues; d marks the D form. Ends that are not written are not given here. Peptide text beside a SMILES is read from it. * marks the point of attachment. Myristoyl = CCCCCCCCCCCCCC(=O)*; Nle = CCCC[C@H](N)C(=O)O

Columns and labels:
[1] = biological target: T1, rat PrRP receptor (Rattus norvegicus, UniProt Q64121); assay: Competitive binding in RC-4B/C rat pituitary cells (125I-rat PrRP31); conditions: for Binding affinity: RC-4B/C cells, statements referring to Table 2; for % of PrRP31, RC-4B/C rat pituitary cells: affinity relative to PrRP31
T1 construct: host or cells: RC-4B/C rat pituitary cell line
T1 sequence (Q64121 1-370): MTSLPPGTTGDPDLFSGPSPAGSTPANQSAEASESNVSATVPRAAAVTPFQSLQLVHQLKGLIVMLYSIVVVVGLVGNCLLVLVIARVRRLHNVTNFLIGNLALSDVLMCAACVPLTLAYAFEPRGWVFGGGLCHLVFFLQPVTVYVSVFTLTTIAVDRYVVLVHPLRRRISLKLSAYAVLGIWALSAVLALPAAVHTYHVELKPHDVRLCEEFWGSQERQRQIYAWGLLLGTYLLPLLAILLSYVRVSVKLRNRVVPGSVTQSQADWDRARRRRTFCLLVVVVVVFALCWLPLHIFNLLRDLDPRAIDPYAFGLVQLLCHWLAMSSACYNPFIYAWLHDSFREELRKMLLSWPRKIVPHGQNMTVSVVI
In short: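 Displacement of rat 125I-PrRP31 ([…]) by test analogs, 10^−11–10^−4 mol·l^−1, on whole RC-4B/C cells, 60 min RT. Bound counts measured by γ-counter in duplicate, ≥3 repeats, analyzed by nonlinear one-site binding regression.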

[2] = test system: C57BL/6 mice; assay: Food intake in fasted mice after SC injection; type: in vivo; conditions: for Effect on food intake in mice: SC
Description: NMRI mice, C57BL/6 mice, and Wistar rats (AnLab, Prague, Czech Republic) were housed in a temperature of 23° C. and a daily cycle of 12 h light and dark (light from 6:00). They were given ad libitum water and a standard chow diet that contained 25, 9 and 66% of calories of protein, fat and carbohydrate respectively. Energy content of the feed was 3.4 kcal/g (St-1, Mlýn Kocanda, Czech Republic). Db/db mice and their controls (C57BL/6 background) were obtained from Taconic (Denmark), housed under the same conditions as described above, and fed by Altromin (Taconic, Denmark). ZDF-Lepr^fa/Crl, diabetic fa/fa male rats were obtained from Charles River (France), housed under same conditions as described above, and fed with a Purina 5008 diet (IPS Product Supplies Limited, UK). All experiments followed the ethical guidelines for animal experiments and the law of the Czech Republic Nr. 246/1992.
In experiments with C57BL/6 mice or Wistar rats, food intake was measured with overnight fasted animals in individual cages. Food was withdrawn 17 hours prior to injection of lipidated analog of prolactin releasing peptide (PrRP); free access to water was maintained. The administration of either saline, PrRP, or lipidated analogs was performed by SC injection at doses of 1-10 mg/kg (which corresponded to a volume of 0.2 ml/mouse and 0.1 ml/100 g weight of rat). Fifteen minutes after the lipidated analog of prolactin releasing peptide (PrRP) administration, the mice were given pre-weighed food. The food was then weighed every 30 minutes for 5-10 hours. The administration of each dose was performed at least twice, and each group of mice consisted of at least 6 mice.

[3] = biological target: T2, human PrRP receptor GPR10 (Homo sapiens, UniProt P49683); assay: Competitive binding in CHO cells transfected with human GPR10 (human 125I-PrRP31); conditions: affinity relative to PrRP31
T2 construct: host or cells: CHO cells
T2 sequence (P49683 1-370): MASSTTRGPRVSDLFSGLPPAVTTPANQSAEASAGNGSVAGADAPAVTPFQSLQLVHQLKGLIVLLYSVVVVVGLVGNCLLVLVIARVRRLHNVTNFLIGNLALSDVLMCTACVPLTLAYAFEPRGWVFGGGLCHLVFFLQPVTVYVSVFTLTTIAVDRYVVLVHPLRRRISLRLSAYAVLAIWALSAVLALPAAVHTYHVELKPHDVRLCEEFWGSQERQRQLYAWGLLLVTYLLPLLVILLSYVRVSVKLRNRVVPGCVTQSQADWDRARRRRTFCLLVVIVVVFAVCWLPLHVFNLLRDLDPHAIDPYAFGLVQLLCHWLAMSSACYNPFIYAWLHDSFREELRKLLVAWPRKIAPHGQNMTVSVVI
In short: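 Values from one-site nonlinear regression of displacement curves: analogs (final 10^-11 to 10^-4 mol·l^-1) competed with 125I-PrRP31 (final 5×10^-11 mol·l^-1) on adherent human GPR10 CHO cells. Binding ran 1 h at room temperature, pH 7.4 buffer with NaCl, MgCl2, CaCl2, glucose, BSA; cell-bound radioactivity counted after NaOH lysis.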

Compound | Binding affinity [1] | Effect on food intake in mice [2] | % of PrRP31, RC-4B/C rat pituitary cells [1] [%] | Food intake in mice % of saline-treated group ([2]; 5 mg/kg SC, 45 min after injection) [%] | % of PrRP31, GPR10 human receptor transfected in CHO cells [3] [%]
CCCC[C@H](NC(=O)CNC(=O)[C@H](CCCNC(=N)N)NC(=O)[C@@H]1CCCN1C(=O)[C@H](Cc1ccc(O)cc1)NC(=O)[C@H](Cc1c[nH]c2ccccc12)NC(=O)[C@H](Cc1c[nH]cn1)NC(=O)[C@@H](NC(=O)[C@H](CC(=O)O)NC(=O)[C@H](C)NC(=O)[C@@H]1CCCN1C(=O)[C@H](CCCNC(=N)N)NC(=O)[C@H](CCC(N)=O)NC(=O)[C@H](Cc1c[nH]cn1)NC(=O)[C@@H](N)CO)[C@@H](C)O)C(=O)N[C@@H](Cc1ccccc1)C(=O)N1CCC[C@H]1C(=O)N[C@H](C(=O)N[C@H](C(=O)NCC(=O)N[C@@H](CCCNC(=N)N)C(=O)N[C@H](C(=O)N[C@H](C(=O)N[C@@H](C)C(=O)N[C@@H](CCCNC(=N)N)C(=O)N[C@@H](CC(N)=O)C(=O)NCC(=O)N[C@@H](CCC(=O)O)C(=O)N[C@H](C(=O)N[C@@H](CO)C(=O)N[C@@H](CCCNC(=N)N)C(N)=O)C(C)C)[C@@H](C)O)[C@@H](C)CC)[C@@H](C)CC)[C@@H](C)O [Analog 19] (H-SHQRPADTHWYPRG[Nle]FPTIGRITARNGEVSR-NH2) | very low binding affinity | no effect | – | – | –
CCCCCCCCCCCCCC(=O)N[C@@H](CO)C(=O)N[C@@H](Cc1c[nH]cn1)C(=O)N[C@@H](CCC(N)=O)C(=O)N[C@@H](CCCNC(=N)N)C(=O)N1CCC[C@H]1C(=O)N[C@@H](C)C(=O)N[C@@H](CC(=O)O)C(=O)N[C@H](C(=O)N[C@@H](Cc1c[nH]cn1)C(=O)N[C@@H](Cc1c[nH]c2ccccc12)C(=O)N[C@@H](Cc1ccc(O)cc1)C(=O)N1CCC[C@H]1C(=O)N[C@@H](CCCNC(=N)N)C(=O)NCC(=O)N[C@@H](CCCC)C(=O)N[C@@H](Cc1ccccc1)C(=O)N1CCC[C@H]1C(=O)N[C@H](C(=O)N[C@H](C(=O)NCC(=O)N[C@@H](CCCNC(=N)N)C(=O)N[C@H](C(=O)N[C@H](C(=O)N[C@@H](C)C(=O)N[C@@H](CCCNC(=N)N)C(=O)N[C@@H](CC(N)=O)C(=O)NCC(=O)N[C@@H](CCC(=O)O)C(=O)N[C@H](C(=O)N[C@@H](CO)C(=O)N[C@@H](CCCNC(=N)N)C(N)=O)C(C)C)[C@@H](C)O)[C@@H](C)CC)[C@@H](C)CC)[C@@H](C)O)[C@@H](C)O [Analog 20] (Myristoyl-SHQRPADTHWYPRG[Nle]FPTIGRITARNGEVSR-NH2) | very low binding affinity | no effect | – | – | –
CCCCCCCCCCCCCC(=O)N[C@H](Cc1ccccc1)C(=O)N[C@H](CCCNC(=N)N)C(=O)NCC(=O)N[C@H](C(=O)N1CCC[C@H]1C(=O)N[C@@H](CCCNC(=N)N)C(=O)N[C@H](C(=O)NCC(=O)N[C@@H](CCCNC(=N)N)C(=O)NCC(=O)N[C@H](C(=O)N[C@@H](Cc1ccc(O)cc1)C(=O)N[C@@H](Cc1c[nH]c2ccccc12)C(=O)N[C@@H](C)C(=O)N1CCC[C@H]1C(=O)N[C@@H](CC(N)=O)C(=O)N[C@H](C(=O)N[C@@H](CC(=O)O)C(=O)N1CCC[C@H]1C(=O)N[C@H](C(N)=O)[C@@H](C)O)[C@@H](C)CC)[C@@H](C)O)[C@@H](C)CC)C(C)C [Analog 26] (Myristoyl-[dF][dR]GVPRIGRGTYWAPNIDPT-NH2) | very low binding affinity | no effect | 1.4 | 100 | –
CCCC[C@H](N)C(=O)N[C@@H](CCC(=O)O)C(=O)N[C@H](C(=O)N[C@@H](CCCNC(=N)N)C(=O)N[C@H](C(=O)N1CCC[C@H]1C(=O)N[C@@H](CC(=O)O)C(=O)N[C@H](C(=O)N[C@@H](CC(N)=O)C(=O)N1CCC[C@H]1C(=O)N[C@@H](C)C(=O)N[C@@H](Cc1c[nH]c2ccccc12)C(=O)N[C@@H](Cc1ccc(O)cc1)C(=O)N[C@H](C(=O)NCC(=O)N[C@@H](CCCNC(=N)N)C(=O)NCC(=O)N[C@H](C(=O)N[C@@H](CCCNC(=N)N)C(=O)N1CCC[C@H]1C(=O)N[C@H](C(=O)NCC(=O)N[C@@H](CCCNC(=N)N)C(=O)N[C@@H](Cc1ccccc1)C(N)=O)C(C)C)[C@@H](C)CC)[C@@H](C)O)[C@@H](C)CC)[C@@H](C)O)[C@@H](C)O [Analog 35] (H-[Nle]ETRTPDINPAWYTGRGIRPVGRF-NH2) | – | – | 168 | – | 113
CCCCCCCCCCCCCC(=O)N[C@@H](CCCC)C(=O)N[C@@H](CCC(=O)O)C(=O)N[C@H](C(=O)N[C@@H](CCCNC(=N)N)C(=O)N[C@H](C(=O)N1CCC[C@H]1C(=O)N[C@@H](CC(=O)O)C(=O)N[C@H](C(=O)N[C@@H](CC(N)=O)C(=O)N1CCC[C@H]1C(=O)N[C@@H](C)C(=O)N[C@@H](Cc1c[nH]c2ccccc12)C(=O)N[C@@H](Cc1ccc(O)cc1)C(=O)N[C@H](C(=O)NCC(=O)N[C@@H](CCCNC(=N)N)C(=O)NCC(=O)N[C@H](C(=O)N[C@@H](CCCNC(=N)N)C(=O)N1CCC[C@H]1C(=O)N[C@H](C(=O)NCC(=O)N[C@@H](CCCNC(=N)N)C(=O)N[C@@H](Cc1ccccc1)C(N)=O)C(C)C)[C@@H](C)CC)[C@@H](C)O)[C@@H](C)CC)[C@@H](C)O)[C@@H](C)O [Analog 36] (Myristoyl-[Nle]ETRTPDINPAWYTGRGIRPVGRF-NH2) | – | – | 1096 | – | 71
CCCCCCCCCCCCCC(=O)N[C@@H](CCC(N)=O)C(=O)N[C@@H](Cc1c[nH]cn1)C(=O)N[C@@H](CO)C(=O)N[C@@H](CCSC)C(=O)N[C@@H](CCC(=O)O)C(=O)N[C@H](C(=O)N[C@@H](CCCNC(=N)N)C(=O)N[C@H](C(=O)N1CCC[C@H]1C(=O)N[C@@H](CC(=O)O)C(=O)N[C@H](C(=O)N[C@@H](CC(N)=O)C(=O)N1CCC[C@H]1C(=O)N[C@@H](C)C(=O)N[C@@H](Cc1c[nH]c2ccccc12)C(=O)N[C@@H](Cc1ccc(O)cc1)C(=O)N[C@H](C(=O)NCC(=O)N[C@@H](CCCNC(=N)N)C(=O)NCC(=O)N[C@H](C(=O)N[C@@H](CCCNC(=N)N)C(=O)N1CCC[C@H]1C(=O)N[C@H](C(=O)NCC(=O)N[C@@H](CCCNC(=N)N)C(=O)N[C@@H](Cc1ccccc1)C(N)=O)C(C)C)[C@@H](C)CC)[C@@H](C)O)[C@@H](C)CC)[C@@H](C)O)[C@@H](C)O [Analog 38] (Myristoyl-QHSMETRTPDINPAWYTGRGIRPVGRF-NH2) | – | – | 1332 | – | 56
QHSMETRTPDINPAWYTGRGIRPVGRF-NH2 [Analog 37] | – | – | 189 | – | 66
TPDINPAWYASRPFRPVGRF-NH2 [Analog 33] | – | – | 230 | – | 225
TPDINPAWYTGRGARPFGRF-NH2 [Analog 31] | – | – | 0.8 | – | 0.7
